# Where a name gives a salt, the structure may show the parent alone. Read-outs that look alike come from different tables or passages of the source.
# How the values were obtained:
# [1] = tested on: influenza A/HK/8/68 (H3N2); assay: microbe, parasite or virus in culture; assay type: cell-based, influenza A virus
# [2] = tested on: influenza A/PR/8/34 (H1N1); assay: microbe, parasite or virus in culture; assay type: cell-based, influenza A virus
# [3] = tested on: influenza B/GL/1739/54; assay: Anti-viral EC50 experiment, survival of virus-infected Vero cells; assay type: cell-based, influenza B virus
# Method: The following MDT compounds were tested: MDT-1, MDT-3, MDT-10, MDT-11, MDT-12, MDT-13, MDT-14, MDT-15, MDT-16, MDT-22, MDT-23, MDT-24, MDT-26, MDT-27, MDT-28, MDT-29, MDT-30, MDT-31, MDT-32, MDT-33, MDT-34, MDT-40, MDT-41, MDT-42, MDT-43, MDT-44, MDT-45, MDT-46, MDT-47, MDT-48, MDT-49, MDT-50, MDT-51, MDT-53, MDT-56, MDT-57, MDT-58, MDT-59, MDT-60, MDT-61, MDT-62, MDT-63, MDT-65, MDT-67, MDT-68 and MDT-69. […] Amantadine and rimantadine are both adamantane derivatives.
# Compound diluents were dimethyl sulfoxide (DMSO), Molecusol ((2-hydroxypropyl)-β-cyclodextrin; Sigma H107), propylene-glycol (PG) and deionized water. Diluents were used singly or in combination as necessary to dissolve the compounds.
# The medium used for the cell lines was 1× Minimal Essential Medium (MEM) (Invitrogen) supplemented with 1% L-glutamine, 1% penicillin-streptomycin, 0.125% bovine serum albumin (BSA), and 1 μg/ml of TPCK-trypsin.
# The viruses tested were influenza A/PR/8/34 (H1N1), influenza A/WS/33 (H1N1), influenza A/HK/8/68 (H3N2) and influenza B/GL/1739/54 (no H, N subtyping). Cells used were the Vero line of African green monkey, normal kidney cells. All viruses and cells were obtained from The American Type Culture Collection (Rockville, Md.). Cells were grown in an atmosphere of 4-6% CO2 at 34-38° C. in MEM with 5% fetal bovine serum (FBS), 2 mM glutamine, and 1% penicillin-streptomycin solution to maintain exponential growth.
# The Vero cells were plated on Day 0. On Day 1, cells were infected with virus and incubated with various concentrations of test compounds. […] On Day 4 the cells were fixed and stained. […] Cell survival due to exposure to test compound was indicative of anti-viral activity.
# [4] = tested on: influenza A/WS/33 (H1N1); assay: microbe, parasite or virus in culture; assay type: cell-based, influenza A virus
# [5] = tested on: Vero cells; settings: Table 3, MDT compounds, No Tox. = no cytotoxicity measured
# [6] = tested on: 3 strains of influenza A virus and one strain of influenza B virus; assay type: cell-based; settings: Vero cells; screening at 50, 10, 5 and 1 μM; all four influenza strains
# [7] = Table 3, Vero cells, H3N2, n at least 2, No effic. = no efficacy measured
# [8] = Table 3, Vero cells, H1N1, n at least 2, No effic. = no efficacy measured, read-out: EC50 Virus A/PR/8/34
# [9] = Table 3, Vero cells, n at least 2, No effic. = no efficacy measured
# [10] = Table 3, Vero cells, H1N1, n at least 2, No effic. = no efficacy measured, read-out: EC50 Virus A/WS/33
# [11] = Table 3, Vero cells, H3N2, n at least 2, No effic. = no efficacy measured, read-out: EC50 Virus A/HK/8/68
# [12] = Table 3, Vero cells, H1N1, n at least 2, No effic. = no efficacy measured
# [13] = Influenza A virus, Table 3, Vero cells, H1N1, n at least 2, No effic. = no efficacy measured
molecule,measurement,setting,value
2-aminotriamantane [MDT-50],EC50 Virus A/HK/8/68,[1]; [7],No Effic.
same,EC50,[2]; [8],20 nM
same,EC50,[3]; [9],< 1000 nM
same,EC50,[4]; [10],370 nM
same,Cytotoxicity,[5],10 or above μM
3-aminotriamantane [MDT-48],anti-viral activity under the conditions tested,[6],did not exhibit anti-viral activity
9-aminotriamantane [MDT-49],anti-viral activity under the conditions tested,[6],did not exhibit anti-viral activity
"NC12CC3CC(CC(C3)C1)C2 [Amantadine, 1-aminoadamantane hydrochloride, reference compound]",EC50,"[1]; Influenza A virus, H3N2, Vero, Table 4, controls, cutoff control values compiled through many experiments",≤ 1000 nM
same,EC50,"[2]; Influenza A virus, Vero, Table 4, controls, cutoff control values compiled through many experiments",≥ 50000 nM
same,EC50,"[3]; Influenza B virus, Vero, Table 4, controls, cutoff control values, determined over only 2 experiments",≥ 20000 nM
same,EC50,"[4]; Influenza A virus, H1N1, Vero, Table 4, controls, cutoff control values compiled through many experiments",≥ 10000 nM
"NC12CC3CC4C5CC(CC41)CC2C5C3 [MDT-1, 1-aminodiamantane]",anti-viral activity under the conditions tested,[6],did not exhibit anti-viral activity
"NC12CC3C4CC5CC3C(C1)C(C5)C4C2 [MDT-3, 4-aminodiamantane]",EC50,[1]; [11],< 125 nM
same,EC50 Virus A/PR/8/34,[2]; [12],No Effic.
same,EC50 Virus B/GL/1739/54,[3]; [9],No Effic.
same,EC50 Virus A/WS/33,[4]; [12],No Effic.
same,Cytotoxicity,[5],10 or above μM
"OC12CC3CC4C5CC(CC41)CC2C5C3 [MDT-10, 1-hydroxydiamantane]",anti-viral activity under the conditions tested,[6],did not exhibit anti-viral activity
"OC12CC3C4CC5CC3C(C1)C(C5)C4C2 [MDT-11, 4-hydroxydiamantane]",anti-viral activity under the conditions tested,[6],did not exhibit anti-viral activity
"OC12CC3CC4C1CC1CC2C(C3)C4(O)C1 [MDT-12, 1,6-dihydroxydiamantane]",anti-viral activity under the conditions tested,[6],did not exhibit anti-viral activity
"OC12CC3CC4C1CC1CC4C(O)(C3)C2C1 [MDT-13, 1,7-dihydroxydiamantane]",anti-viral activity under the conditions tested,[6],did not exhibit anti-viral activity
"OC12CC3C4CC5(O)CC3C(C1)C(C5)C4C2 [MDT-14, 4,9-dihydroxydiamantane]",anti-viral activity under the conditions tested,[6],did not exhibit anti-viral activity
"OC12CC3C4CC5C6CC7(O)CC5C(C4C1)C(C2)(C7)C36 [MDT-15, 9,15-dihydroxytriamantane]",anti-viral activity under the conditions tested,[6],did not exhibit anti-viral activity
"CC12CC3(N)CC4C5CC(CC41)CC2C5C3 [MDT-22, 2-methyl-4-aminodiamantane]",anti-viral activity under the conditions tested,[6],did not exhibit anti-viral activity
"CC12CC3CC4C1CC1(N)CC2C(C3)C4(C)C1 [MDT-23, 1,6-dimethyl-4-aminodiamantane]",anti-viral activity under the conditions tested,[6],did not exhibit anti-viral activity
"CC12CC3CC4C5CC(N)(CC41)CC2C5C3 [MDT-24, 1-methyl-4-aminodiamantane]",EC50,[1]; [11],70 nM
same,EC50 Virus A/PR/8/34,[2]; [12],No Effic.
same,EC50 Virus B/GL/1739/54,[3]; [9],No Effic.
same,EC50 Virus A/WS/33,[4]; [12],No Effic.
same,Cytotoxicity,[5],No Tox.
"O=NC12CC3CC4C5CC(CC41)CC2C5C3 [MDT-26, 1-nitrosodiamantane]",EC50 Virus A/HK/8/68,[1]; [7],No Effic.
same,EC50,[2]; [8],140 nM
same,EC50 Virus B/GL/1739/54,[3]; [9],No Effic.
same,EC50,[4]; [10],800 nM
same,Cytotoxicity,[5],No Tox.
"O=NC12CC3C4CC5CC3C(C1)C(C5)C4C2 [MDT-27, 4-nitrosodiamantane]",EC50 Virus A/HK/8/68,[1]; [7],No Effic.
same,EC50,[2]; [8],20 nM
same,EC50 Virus B/GL/1739/54,[3]; [9],No Effic.
same,EC50,[4]; [10],360 nM
same,Cytotoxicity,[5],No Tox.
"CC12CC3(N)CC4C5CC(N)(CC41)CC2C5C3 [MDT-28, 1-methyl-4,9-diaminodiamantane]",anti-viral activity under the conditions tested,[6],did not exhibit anti-viral activity
"CC12CC3CC4C1CC1(N)CC2C(C3)C4(N)C1 [MDT-29, 1-methyl-4,6-diaminodiamantane]",anti-viral activity under the conditions tested,[6],did not exhibit anti-viral activity
"CC12CC3CC4C5CC(CC41)CC2(N)C5C3 (centres unmarked) [MDT-30, 1-amino-12-methyldiamantane]",anti-viral activity under the conditions tested,[6],did not exhibit anti-viral activity
"CC12CC3CC4C1CC1(N)CC2C(C3)C4(C)C1 [MDT-33, 1,6-dimethyl-4-aminodiamantane]",anti-viral activity under the conditions tested,[6],did not exhibit anti-viral activity
"OC12C3CC4CC5C3CC3C6CC(CC31)CC2(C4)C56 [MDT-40, 2-hydroxytriamantane]",EC50 Virus A/HK/8/68,[1]; [7],No Effic.
same,EC50,[2]; [8],1900 nM
same,EC50 Virus B/GL/1739/54,[3]; [9],No Effic.
same,EC50,[4]; [10],24900 nM
same,Cytotoxicity,[5],No Tox.
"OC12CC3CC4C1CC1C5CC6CC1C2C(C6)(C3)C54 (centres unmarked) [MDT-41, 3-hydroxytriamantane]",EC50 Virus A/HK/8/68,[1]; [7],No Effic.
same,EC50,[2]; [13],610 nM
same,EC50 Virus B/GL/1739/54,[3]; [9],No Effic.
same,EC50,[4]; [13],5500 nM
same,Cytotoxicity,[5],No Tox.
"OC12CC3C4CC5C6CC7CC5C(C4C1)C(C7)(C2)C63 [MDT-42, 9-hydroxytriamantane]",EC50 Virus A/HK/8/68,[1]; [7],No Effic.
same,EC50,[2]; [13],80 nM
same,EC50 Virus B/GL/1739/54,[3]; [9],No Effic.
same,EC50,[4]; [13],2500 nM
same,Cytotoxicity,[5],No Tox.
"CC12CC3C4CC5(C)CC3C(C1)C(N)(C5)C4C2 [MDT-51, 4,9-dimethyl-1-aminodiamantane]",anti-viral activity under the conditions tested,[6],did not exhibit anti-viral activity
"CC12CC3C4CC5(C)CC(C(C1)C3(N)C5)C4(N)C2 [MDT-53, 4,9-dimethyl-1,6-diaminodiamantane]",anti-viral activity under the conditions tested,[6],did not exhibit anti-viral activity
"NCC12CC3CC4C5CC(CC41)CC2C5C3 [MDT-56, 1-diamantanemethylamine]",anti-viral activity under the conditions tested,[6],did not exhibit anti-viral activity
"O=C1C2CC3C4CC5CC3C1C(C5)C4C2 [MDT-59, 3-diamantanone]",anti-viral activity under the conditions tested,[6],did not exhibit anti-viral activity
"CC12CC3C4CC5CC3C(C1)C(C5)C4C2 [MDT-60, 4-methyldiamantane]",anti-viral activity under the conditions tested,[6],did not exhibit anti-viral activity
"CC12CC3C4CC5(C)CC3C(C1)C(CN)(C5)C4C2 [MDT-63, 4,9-dimethyl-1-diamantanemethyleneamine]",anti-viral activity under the conditions tested,[6],did not exhibit anti-viral activity
"CC12CC3CC4C1CC1(CN)CC2C(C3)C4(C)C1 [MDT-65, 1,6-dimethyl-4-diamantanemethyleneamine]",anti-viral activity under the conditions tested,[6],did not exhibit anti-viral activity
"CC(N)C12CC3(C)CC4C5CC(C)(CC41)CC2C5C3 (centres unmarked) [MDT-67, 4,9-dimethyl-1-diamantane-1′-methyl-methyleneamine]",anti-viral activity under the conditions tested,[6],did not exhibit anti-viral activity
"CC(N)C12CC3C4CC5CC(C(C1)C3(C)C5)C4(C)C2 (centres unmarked) [MDT-68, 1,6-dimethyl-4-diamantane-4′-methyl-methyleneamine]",anti-viral activity under the conditions tested,[6],did not exhibit anti-viral activity
